# Patent publication US4186194A (priority 1973, dated 1980)
# Columns and labels:
# [1] = tested on: Female Hartley guinea-pigs; assay: Adjuvant activity: rates of antibodies with respect to ovalbumin after injection with incomplete Freund adjuvant and ovalbumin; type: in vivo, guinea-pig; settings: Table 2; dose 25 μg/animal
# Method: Female Hartley guinea-pigs of 300-350 g received, in the plantar pad of each of the two rear paws, an emulsion composed of equal parts of incomplete Freund adjuvant and a physiological solution containing ovalbumin (5 mg/guinea-pig) and the preparation to be tested. The incomplete Freund adjuvant (FIA) (that is to say not containing mycobacteria), is the complete adjuvant (FCA) marketed by the DIFCO company were used as controls.
# The rates of antibodies with respect to ovalbumin were determined three weeks after injection. The antibody rate is expressed in μg/ml of serum of the antigen-antibody precipitate at the point of equivalents.
# [2] = tested on: Female Hartley guinea-pigs; assay: Delayed hypersensitivity to ovalbumin (cutaneous reaction); type: in vivo, guinea-pig; settings: Table 2, adjuvant dose 25 μg
# Method: The delayed hypersensitivity to ovalbumin was measured by cutaneous reaction four weeks after injection; it is expressed by the diameter in millimeters of the erythema (E), of the induration (I) or the necrosis (N), forty-eight hours after sub-cutaneous injection of 10 or 100 μg of ovalbumin.
# [3] = tested on: tumor cells (mastocytome); assay: Antitumor effect of peritoneal macrophages activated in vivo; type: cell-based; settings: macrophages of mice injected intraperitoneally with 30 μg, recovered 4 days later, incubated with tumor cells
# Method: The following test takes advantage of the finding made by several authors that macrophages become cytotoxic with respect to neoplasic cells, when they have previously been activated by immuno-adjuvant substances.
# Two groups of three mice were injected intraperitoneally with 30 μg of each of the substances respectively. The mice were sacrificed 4 days later. There macrophages were recovered according to the technique of D. Juy, C. Bona and L. Chedid, C. R. Acad. Sc. Paris, 1974, 268, Serie D, 1859 and incubated in the presence of tumor cells (mastocytome).
# The inhibition of the mastocytome increase was measured by reference to the reduced incorporation of radioactive thymidine as compared to that of controls.
# mastocytome = assay: Activation of macrophages in vitro (cytotoxicity with respect to the mastocytome); type: cell-based; settings: incubated directly with normal macrophages and with macrophages from an inflammatory peritoneal exsudate (both cases)
# Method: The activity of the muramyl-dipeptide was measured by directly incubating it with both normal macrophages and macrophages originating from an inflammatory peritoneal exsudate.
# guinea pigs = assay: Delayed hypersensitivity with respect to the substances in guinea pigs treated with Freund's complete adjuvant; type: in vivo, guinea pig; settings: 5 and 10 μg in the dermis of guinea pigs, three weeks after ovalbumine with FIA or FCA
# Method: Three groups of guinea pigs were injected (in their foot pads) with 1 mg of ovalbumine together with:
# (a) Freund's incomplete adjuvant (FIA) and
# (b) Freund's complete adjuvent (FCA) respectively.
# The delayed hypersensitivity was measured by subcutaneous reaction three weeks thereafter, by injecting 5 mg of ovalbumine and of 5 and 10 μg of either the substance BB and the muramyl-dipeptide in the dermis of the animals.
# surrenalectomized mice = assay: Toxicity in surrenalectomized mice; type: in vivo; settings: 30 μg dosage
smiles,measurement,setting,value
"CC(=O)N[C@@H]1[C@@H](O[C@H](C)C(=O)N[C@@H](C)C(=O)N[C@H](CCC(=O)O)C(N)=O)[C@H](O)[C@@H](CO)O[C@H]1O [N-acetylmuramyl-L-Ala-D-Glu-NH2, 2-(2-acetamido-2-desoxy-3-O-D-glucopyranosyl)-D-propionyl-L-Ala-(γ-OH)-D-α-Glu NH2]","Antibody/antiovalbumin, Average",[1],5210 µg/mL
same,"Antibody/antiovalbumin, animal 1",[1],5280 µg/mL
same,"Antibody/antiovalbumin, animal 2",[1],6000 µg/mL
same,"Antibody/antiovalbumin, animal 3",[1],2960 µg/mL
same,"Antibody/antiovalbumin, animal 4",[1],6880 µg/mL
same,"Antibody/antiovalbumin, animal 5",[1],4960 µg/mL
same,"Delayed Hypersensitivity, erythema (E)",[2]; 10 μg ovalbumin injection,9 millimeters
same,"Delayed Hypersensitivity, erythema (E)",[2]; 100 μg ovalbumin injection,17 millimeters
same,Inhibition of the mastocytome increase (reduced incorporation of radioactive thymidine compared to controls),[3],84%
same,Increase in vitro of the cytotoxicity of the macrophages with respect to the mastocytome,mastocytome,capable of increasing in vitro the cytotoxicity of the macrophages
same,Delayed hypersensitivity reaction to the substance,guinea pigs,dit not induce any detectable reaction
same,Toxicity,surrenalectomized mice,no detectable toxicity
